# According to paper PMC8949771, “Gold(I)-Mediated Rapid Cyclization of Propargylated Peptides via Imine Formation” (Journal of the American Chemical Society, 2022):
# Key:
# HeLa cells = assay: Live-cell uptake, confocal microscopy; assay type: cell-based; conditions: 2.5 μM, 1 h incubation, FITC signal, repeated in duplicates
# Protocol: With both peptides in hand (5 and 6, Figure 7A), we investigated the binding efficiency using our fluorescence-based competitive assay.[38] […] Encouraged by these in vitro results, we explored the cellular uptake and apoptosis efficacy of the new cyclic peptide in living cells. To investigate the live cell delivery efficacy of the FITC-labeled peptides (9 and 10), both cyclic peptides were incubated for 1h with HeLa cells at different concentrations of 2.5, 5, 7, and 10 μM. […] After assessing the cellular uptake, we probed the controlled cell death or apoptosis in HeLa cells using only 2.5 μM peptides (3 and 5) and the known proteasome inhibitor MG-132 as a positive control. […] (Figure 7E).
# To investigate the cellular delivery efficiency of the new cyclic peptide HeLa (CCL-2™) cells were seeded on ibidi poly-L-lysine (PLL) 8 well µ-slides in […] and were allowed to reach […]
# ~90% confluency over 24h. Cells were washed three times with warm PBS and serum-free DMEM (high glucose) followed by incubation for 1h with warm PBS/serum-free medium containing containing 2.5, 5, and 10 µM of fluorescently labeled cyclic peptides (9 and 10). Cells were then washed three times with warm PBS followed by adding 0.1 mg/ml heparin sulfate in PBS and incubating for 5min. […]
# [1] = Au(I)-mediated imine macrocyclisation (JohnPhosAu(MeCN)SbF6 2 equiv, Et4NBr 16 equiv) then in situ NaBH4 reduction to cyclic amine, HPLC isolation; conditions: the molecule shown is the open-chain precursor; 24-membered ring; DMF; 8.0 mM; 37.0 °C; 1.0 h; 2 steps
Structure (SMILES),cellular uptake (fluorescence in cells) (HeLa cells),"ring closure, yield over several steps [1]"
CC1=NCC(=O)N[C@@H](Cc2c[nH]c3ccccc23)C(=O)N[C@@H](Cc2ccccc2)C(=O)N[C@@H](CC(=O)O)C(=O)N[C@@H](CC(=O)O)C(=O)N[C@@H](CC(C)C)C(=O)N[C@@H](Cc2ccc(O)cc2)C(=O)N[C@@H](Cc2c[nH]c3ccccc23)C(=O)N[C@@H](Cc2ccccc2)C(=O)N[C@@H](C(C)C)C(=O)N[C@@H](C)C(=O)N[C@@H](Cc2ccc(O)cc2)C(=O)N(CC(=O)N[C@@H](C)C(=O)N[C@@H](CSC2CC(=O)N(c3ccc4c(c3)C(=O)OC43c4ccc(O)cc4Oc4cc(O)ccc43)C2=O)C(N)=O)C1 (some centres unmarked) [Peptide 10],significant fluorescence,–
C#CCN(CC(N)=O)C(=O)CNC(=O)[C@H](C)NC(=O)[C@H](CCCNC(=N)N)NC(=O)[C@H](Cc1ccc(O)cc1)NC(=O)[C@H](CC(C)C)NC(=O)CNC(=O)[C@@H](N)Cc1c[nH]c2ccccc12 [H-Trp-Gly-Leu-Tyr-Arg-Ala-Gly-(N-propargyl)Gly-NH2],–,74%
